# Data from patent US8278032B2, “Transporter protein in mammal and utilization of the same” (priority 2005, dated 2012).
# Target: T1, hMATE1 (Homo sapiens, UniProt Q96FL8)
# T1 sequence (Q96FL8 1-570): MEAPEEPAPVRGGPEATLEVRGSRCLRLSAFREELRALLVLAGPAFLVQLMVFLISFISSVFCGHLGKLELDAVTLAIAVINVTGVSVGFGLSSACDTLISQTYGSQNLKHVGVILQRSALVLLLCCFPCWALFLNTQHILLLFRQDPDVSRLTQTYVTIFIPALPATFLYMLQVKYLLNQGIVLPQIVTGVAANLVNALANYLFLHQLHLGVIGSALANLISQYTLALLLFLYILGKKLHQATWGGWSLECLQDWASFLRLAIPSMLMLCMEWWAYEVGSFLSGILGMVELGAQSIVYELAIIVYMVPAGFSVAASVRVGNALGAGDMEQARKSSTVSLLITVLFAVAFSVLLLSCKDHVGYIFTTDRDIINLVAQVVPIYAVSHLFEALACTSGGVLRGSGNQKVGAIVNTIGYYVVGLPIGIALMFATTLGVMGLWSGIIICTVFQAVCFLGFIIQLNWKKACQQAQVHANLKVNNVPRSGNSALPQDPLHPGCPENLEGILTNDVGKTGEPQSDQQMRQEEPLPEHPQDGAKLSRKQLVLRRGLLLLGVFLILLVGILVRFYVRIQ
# Assay: Inhibition of RI-labeled TEA uptake in HEK293 cells expressing hMATE1
# Conditions: for TEA uptake activity percent taking the level with addition of no compound as 100% (% ± S.D.): 50 μM RI-labeled TEA, pH 8.0, HEK293 cells expressing hMATE1; for Effect on TEA uptake activity (in words): valinomycin 5 μM with 65 mM potassium chloride, nigericin 5 μM with potassium chloride, SF6847 10 μM; for Inhibition of TEA uptake activity (in words, summary of Table 1): MATE1 expressing HEK293 cells, 50 μM TEA, pH 8.0
# [1] = HEK293 cells expressing human MATE1, FIG. 9(e)
compound,measurement,setting,value
CC[C@@H]1C(=O)OC[C@@H]1Cc1cncn1C [Pilocarpine],TEA uptake activity percent taking the level with addition of no compound as 100% (% ± S.D.),compound 0.1 mM,96.1 ± 0.4%
CC(C)NCC(O)COc1cccc2ccccc12 (stereo not shown) [Propranolol],TEA uptake activity percent taking the level with addition of no compound as 100% (% ± S.D.),compound 0.1 mM,30.1 ± 3.9%
CCc1nc(N)nc(N)c1-c1ccc(Cl)cc1 [Pyrimethamine],TEA uptake activity percent taking the level with addition of no compound as 100% (% ± S.D.),compound 0.00001 mM,45.2 ± 3.5%
same,TEA uptake activity percent taking the level with addition of no compound as 100% (% ± S.D.),compound 0.0001 mM,19.8 ± 1.6%
CCN(CC)CCCC(C)Nc1c2ccc(Cl)cc2nc2ccc(OC)cc12 (stereo not shown) [Quinacrine],TEA uptake activity percent taking the level with addition of no compound as 100% (% ± S.D.),compound 0.01 mM,41.6 ± 8.2%
C=C[C@H]1C[N@@]2CC[C@H]1C[C@H]2[C@H](O)c1ccnc2ccc(OC)cc12 [Quinine],TEA uptake activity percent taking the level with addition of no compound as 100% (% ± S.D.),compound 0.01 mM,30.4 ± 2.8%
COC(=O)[C@H]1[C@H]2C[C@@H]3c4[nH]c5cc(OC)ccc5c4CCN3C[C@H]2C[C@@H](OC(=O)c2cc(OC)c(OC)c(OC)c2)[C@@H]1OC [Reserpine],TEA uptake activity percent taking the level with addition of no compound as 100% (% ± S.D.),compound 0.001 mM,86.3 ± 3.5%
same,TEA uptake activity percent taking the level with addition of no compound as 100% (% ± S.D.),compound 0.01 mM,22.8 ± 0.9%
C[C@@H]1O[C@@H](OC[C@H]2O[C@@H](Oc3c(-c4ccc(O)c(O)c4)oc4cc(O)cc(O)c4c3=O)[C@H](O)[C@@H](O)[C@@H]2O)[C@H](O)[C@H](O)[C@H]1O [Rutin],TEA uptake activity percent taking the level with addition of no compound as 100% (% ± S.D.),compound 0.1 mM,71.8 ± 3.6%
CC(C)(C)c1cc(C=C(C#N)C#N)cc(C(C)(C)C)c1O [SF6847],Effect on TEA uptake activity (in words),[1],greatly decreased
NCCc1c[nH]c2ccc(O)cc12 [Serotonin],TEA uptake activity percent taking the level with addition of no compound as 100% (% ± S.D.),compound 0.1 mM,67.5 ± 8.0%
NCCCCNCCCN [Spermidine],TEA uptake activity percent taking the level with addition of no compound as 100% (% ± S.D.),compound 0.05 mM,97.0 ± 11.4%
Cc1ncc(C[n+]2csc(CCO)c2C)c(N)n1 [Thiamine],TEA uptake activity percent taking the level with addition of no compound as 100% (% ± S.D.),compound 0.1 mM,55.7 ± 7.0%
same,TEA uptake activity percent taking the level with addition of no compound as 100% (% ± S.D.),compound 1 mM,31.1 ± 3.9%
N[C@@H](Cc1cc(I)c(Oc2cc(I)c(O)c(I)c2)c(I)c1)C(=O)O [Thyroxine],TEA uptake activity percent taking the level with addition of no compound as 100% (% ± S.D.),compound 0.1 mM,113.0 ± 4.5%
Cl.N [ammonium chloride],TEA uptake activity inhibited by,"HEK293 cells expressing human MATE1, FIG. 9(e), concentration not given",60%
C[C@]12CC[C@@H](O)C[C@@H]1CC[C@@H]1[C@@H]2CC[C@]2(C)C(=O)CC[C@@H]12 [androsterone],"Inhibition of TEA uptake activity (in words, summary of Table 1)",,inhibited
CO[C@@H]1C[C@@H](C[C@H]2CC[C@H](C)[C@H]([C@@H](C)C(=O)O)O2)O[C@]2(O[C@](C)([C@H]3CC[C@@](C)([C@@H]4O[C@@H]([C@H]5O[C@@](O)(CO)[C@H](C)C[C@@H]5C)C[C@@H]4C)O3)C[C@H]2C)[C@@H]1C [nigericin],Effect on TEA uptake activity (in words),[1],greatly decreased
CC(C)[C@@H]1NC(=O)[C@H](C)OC(=O)[C@@H](C(C)C)NC(=O)[C@@H](C(C)C)OC(=O)[C@H](C(C)C)NC(=O)[C@H](C)OC(=O)[C@@H](C(C)C)NC(=O)[C@@H](C(C)C)OC(=O)[C@H](C(C)C)NC(=O)[C@H](C)OC(=O)[C@@H](C(C)C)NC(=O)[C@@H](C(C)C)OC1=O [valinomycin],Effect on TEA uptake activity (in words),[1],not affected
Catechin,TEA uptake activity percent taking the level with addition of no compound as 100% (% ± S.D.),compound 0.1 mM,104.0 ± 4.4%
Tocopherol,TEA uptake activity percent taking the level with addition of no compound as 100% (% ± S.D.),compound 0.1 mM,78.8 ± 9.6%
para-aminobutyric acid,"Inhibition of TEA uptake activity (in words, summary of Table 1)",,not inhibited
